The values below come from patent publication EP0017525A1, “Derivatives of tetrahydroalstonine, their preparation and their application as medicaments” (PIERRE FABRE S.A., priority 1979, dated 1980).

By solubility is commonly meant how much of the substance goes into solution per volume.

In data set [1] the test system is pression artérielle et membrane nictitante. As to the kind of experiment: Adrenolytic activity in the anaesthetised cat. The format is in vivo. As to conditions: chat. The source says: (§1) Les propriétés adrénolytiques ont été recherchées chez le chat et le chien anesthésiés vis-à-vis de la pression artérielle et de la membrane nictitante (chat).
Data set [2] has as its system excrétion urinaire provoquée par l'adrénaline. The note with it: rat; for augmentation de l'excrétion urinaire provoquée par l'adrénaline: 100 mg par voie orale; for absorption par voie orale: in vivo, po.
Another data set deals with souris. As to the kind of experiment: Acute toxicity, intravenous route. Type of data set: in vivo. As to conditions: voie intraveineuse, méthode de Kärber. As for the experimental part:
(§2) Par voie injectable les composés de formule I ont été administrés jusqu'à 100 mg/kg, sans provoquer de mortalité chez le rat. A titre d'exemple, on précisera que la DL 50 par voie intraveineuse chez la souris est de 330 mg/kg pour le tétrahydroalstonate de sodium. La toxicité du tétrahydroalstonate de créatinol chez la souris,par voie intraveineuse calculée selon la méthode de Kärber est de 450 mg/kg.

The test system of data set [3] is agrégation à l'ADP, au collagène et à l'ADP + adrénaline. As to the kind of experiment: In vitro aggregation induced by ADP, collagen and ADP + adrenaline. Type of data set: cell-based. The source says:
Les tétrahydroalstonates de sodium, de créatinol et d'imidazole sont actifs in vitro vis-à-vis de l'agrégation à l'ADP, au collagène et à l'ADP + adrénaline; les concentrations actives.variant de 1.10^-3M à 1.10^-5M selon les tests et les composés particuliers répondant à la formule générale I.

A further data set deals with pression artérielle. The experiment in a line: Adrenolytic activity and arterial pressure in the anaesthetised dog. The format is in vivo. The note with it: chien, 0,1 à 10 mg/kg par voie intraveineuse. As for the experimental part:
as §1
Cette activité ne s'accompagne pas de diminution de la force de contraction cardiaque. L'inversion de l'hypertension à l'adrénaline commence dès la dose de 0,05 mg/kg.

Data set [4] can be described thus: Acute toxicity, intravenous route. Type of data set: in vivo. The note with it: mouse, in vivo, iv; souris, voie intraveineuse; read-out: DL 50 (the source's name). As for the experimental part: as §2

With Tétrahydroalstonate de créatinol, in data set [1] (voie injectable), the “activité adrénolytique comparée à la raubasine et à la tétrahydroalstonine” value is “très nettement supérieure à celle de la raubasine et de la tétrahydroalstonine” and the “dose à laquelle les composés agissent (activité adrénolytique)” value is listed as 0,1 mg/kg. Further, the “Solubilités : éthanol à 95” value (95% ethanol) is on record as 5%. Besides, the “Solubilités : eau” value (water) is listed as 5%. In data set [2], the “augmentation de l'excrétion urinaire provoquée par l'adrénaline” value is reported as “réduisent l'augmentation de l'excrétion urinaire provoquée par l'adrénaline” and the “absorption par voie orale” value is “bonne absorption par voie orale”. This compound also registered a toxicité with souris of 450 mg/kg. Besides, in data set [3], the “agrégation à l'ADP” value was “actifs”, the “agrégation à l'ADP + adrénaline” value is recorded as “actifs” and the “agrégation au collagène” value was “actifs”. The “pression artérielle” value in the data set with pression artérielle is given as “diminution progressive de la pression artérielle proportionnelle à la dose”.

For the compound tétrahydroalstonate d'imidazole, in data set [3], the “agrégation à l'ADP” value is recorded as “actifs”, the “agrégation à l'ADP + adrénaline” value was “actifs” and the “agrégation au collagène” value was “actifs”.

On to `COC(=O)C1=COC(C)C2CN3CCc4c([nH]c5ccccc45)C3CC12` (stereo not drawn) [tétrahydroalstonine, reference compound], for which the “dose pour laquelle l'adrénolyse est parfaitement nette” value in data set [1] was 0,5 mg/kg.

Take `COC(=O)C1=COC(C)C2CN3CCc4c([nH]c5ccccc45)C3CC12` (stereo not drawn) [raubasine, reference compound]: in data set [1], the “dose pour laquelle l'adrénolyse est parfaitement nette” value came to 2 mg/kg.

Turning to `CC1OC=C(C(=O)O)C2CC3c4[nH]c5ccccc5c4CCN3CC12` (stereo not drawn) [tétrahydroalstonate de sodium, Tétrahydroalstonate de sodium], the “activité adrénolytique comparée à la raubasine et à la tétrahydroalstonine” value in data set [1] (voie injectable) was “très nettement supérieure à celle de la raubasine et de la tétrahydroalstonine”. For the same compound, in data set [2], the “augmentation de l'excrétion urinaire provoquée par l'adrénaline” value was “réduisent l'augmentation de l'excrétion urinaire provoquée par l'adrénaline” and the “absorption par voie orale” value is recorded as “bonne absorption par voie orale”. The LD50 in data set [4] came out at 330 mg/kg. Moreover, in data set [3], the “agrégation à l'ADP” value is “actifs”, the “agrégation à l'ADP + adrénaline” value is reported as “actifs” and the “agrégation au collagène” value is on record as “actifs”. For the same compound, the “pression artérielle” value in the data set with pression artérielle was “diminution progressive de la pression artérielle proportionnelle à la dose”. In the data set “Solubility” (95% ethanol, organic solvent or mixture), the solubility was 70 mg/mL. Besides, the solubility in “Solubility” (chloroform, organic solvent or mixture) is 35 mg/mL. This compound also yielded a solubility in the data set “Solubility” (water) of 90 mg/mL.
